Source: publication PMC11855827, “High-Throughput Screening of Five Compound Libraries for Anthelmintic Activity and Toxicity Leads to the Discovery of Two Flavonoid Compounds” (International Journal of Molecular Sciences, 2025)
Several values for one entry are separate records, joined by “and”; a condition that tells them apart may be missing. Equal values may be shown once. Read-outs that look alike come from different tables or passages of the source.

Assays:
C. elegans [1] = assay: C. elegans motility dose-response (DR) assay; parameters: species or system Caenorhabditis elegans
[2] = system: H. contortus susceptible strain; assay: Egg hatch inhibition (EHI), ovicidal effect; parameters: species or system Haemonchus contortus; details: for EC50: egg hatching, susceptible H. contortus, nine replicates, read-out: Ovicidal Effect EC50 (μM) H. c
[3] = system: T. circumcincta resistant strain; assay: Egg hatch inhibition (EHI), ovicidal effect; parameters: species or system Teladorsagia circumcincta; details: for EC50: egg hatching, resistant T. circumcincta, nine replicates, read-out: Ovicidal Effect EC50 (μM) T. c
[4] = system: H. contortus susceptible strain; assay: Larval migration inhibition test (LMIT); parameters: species or system Haemonchus contortus; details: L3, 100 μM, NE = Not Effective at 100 μM, control ivermectin 8.75 µg/mL; for inhibition at 100 µM: Haemonchus contortus, 24 h
Source text: (§1) Eggs and third instar larvae (L3) of H. contortus from a field strain and a resistant strain of T. circumcincta were used in the current trials. These parasitic forms were obtained from fresh feces of Merino and Churra sheep experimentally infected at the experimental farm of the Instituto de Ganadería de Montaña (IGM, CSIC, Gruyeros, León, Spain) and purified according to previously described methods. Briefly, eggs were taken from fresh feces, washed, centrifuged and floated with a saturated sodium chloride solution, then concentrated, counted and used in the assays. L3 were obtained by culturing feces at 25 °C for 13 d. L3 larvae were […] in 0.5% sodium hypochlorite solution for 10 min at room temperature and washed to avoid excess salt. After washing, they were concentrated and counted for use.
(§2) The viability of H. contortus larvae was assessed by the larval migration inhibition test (LMIT) according to previously described methods. Briefly, 700 µL aliquots containing 500–600 L3 were prepared for each compound. […] After a 24 h incubation at 28 °C, the compound was removed by three washes, leaving a final volume of 1400 µL. After the washes, three 400 µL aliquots were taken from each tube and transferred to a 96-well plate with a MultiScreen mesh filter. The plates were incubated for a further 24 h at 28 °C to allow the motile L3 to pass through the 20 µm mesh for counting. Then, the number of larvae present in each well was counted to determine percentage of larval migration for each compound: % Larval migration=number of larvae migrating in compound wells/number of larvae migrating in negative control×100
(§3) For the larvae, ivermectin at 8.75 µg/mL and DMSO 0.5% (v/v) were used as controls and at least 12 replicates were performed. […] EC50 were determined by plotting the percentage of viability of the L1 against the concentration of each compound, using the nonlinear fit analysis provided by the SigmaPlot® 10.1.

[5] = Spheroids toxicity assay (alamarBlue); format: cell-based; details: human; for CC50 at 3 d: HepG2 liver spheroids (3D culture)
Procedure: (§4) HepG2 cells were cultured as a monolayer under standard conditions, using DMEM/F12 medium supplemented with L-glutamine and 15 mM HEPES buffer (pH 7.2) supplemented with 10% fetal bovine serum (FBS) and antibiotic mixture (100 U/mL penicillin and 100 µg/mL streptomycin) at 37 °C and 5% CO2, according to previous published protocols.
(§5) Cells were detached from the culture flask using 0.25% trypsin solution and then centrifuged at 500× g for 6.5 min. After centrifugation, the supernatant was discarded, and the pellet was resuspended in culture medium. Cells were passed gently through a G27 needle several times and then counted. Cells were dispensed into a tissue treated Nunclon™ Sphera™ 96-well U-bottom plate (Thermo Scientific™, Waltham, MA, USA, 174925) in a final volume of 50 µL to a total of 2500 cells/well. In addition, another 50 µL of medium supplemented with Rat Tail Collagen I (Gibco™, Thermo Scientific™, Waltham, MA, USA, A1048301) was dispensed, to achieve a final concentration in a plate of 3 µg/mL for each well. The plate was centrifuged at 500× g for 1 min.
(§6) On Day 4, 100 µL of a serial dilution of the testing compounds were added to each well. For controls, 0.03% H2O2 (v/v) as positive control and 0.2% DMSO (v/v) as negative control were used.
(§7) To determine the viability of the spheroids to the testing compounds, a 20% of alamarBlue™ HS reagent (Invitrogen™, Thermo Fisher Scientific™, Waltham, MA, USA) was added on Day 7 and the results were read 24 h later using a Varioskan™ LUX (Thermo Scientific, USA, Instrument software ver. 1.00.37, Skanlt software ver. 5.0.0.42). All assays were conducted in duplicate across at least three independent experiments.

C. elegans [6] = details: cited from earlier work
H. contortus L3-L4 = details: read-out: IC50 against H. contortus L3-L4; cited from earlier work
in vitro = details: C57BL/6, mouse
[7] = human poisoning case; cited from earlier work
[8] = mice, estimated; cited from earlier work
[9] = Globally Harmonized System (GHS) / ECHA; cited from earlier work
C. elegans [10] = assay: microbe, parasite or virus in culture; details: Caenorhabditis elegans
[11] = system: T. circumcincta resistant strain; assay: Larval migration inhibition test (LMIT); parameters: species or system Teladorsagia circumcincta; details: Teladorsagia circumcincta, 24 h; resistant strain, L3, 100 μM; NE = Not Effective at 100 μM; control ivermectin 8.75 µg/mL; read-out: T. circumcincta LMIT (%)
Source text: as §1, §2, §3

[12] = system: Staphylococcus epidermidis, Escherichia coli, and Candida albicans; parameters: method as in earlier work; details: in vitro; cited from earlier work
[13] = Mouse intestinal organoids' tolerance assay (alamarBlue); details: C57BL/6, mouse; for selectivity ratio at 3 d: mouse intestinal organoids (enteroids)
HepG2 liver spheroids = assay: Spheroids toxicity assay (alamarBlue); format: cell-based
Procedure: as §4, §5, §6, §7

C. elegans [14] = system: C. elegans
[15] = system: mouse intestinal organoids (enteroids); details: C57BL/6, mouse
[16] = system: mouse intestinal organoids (enteroids); assay: Mouse intestinal organoids' tolerance assay (alamarBlue); details: read-out: Citotoxicity CC50 (μM) Ent; mouse enteroid
[17] = Haemonchus contortus, susceptible strain, 100 μM, NE = Not Effective at 100 μM, control thiabendazole 0.1 µg/mL
[18] = Teladorsagia circumcincta, resistant strain, 100 μM, NE = Not Effective at 100 μM, control thiabendazole 0.1 µg/mL
[19] = HepG2 liver spheroids, read-out: Citotoxicity CC50 (μM) Sph
[20] = Selective Index (SI) CC50/EC50 Ent/H. c, CC50 mouse enteroid / EC50 H. contortus
[21] = Selective Index (SI) CC50/EC50 Ent/T. c, CC50 mouse enteroid / EC50 T. circumcincta
[22] = read-out: Citotoxicity CC50 (μM) Sph
[23] = 0 h, read-out: Inhibition (%) 110 μM (0 h), C. elegans L4 motility, 110 μM, 0 h, mean ± SD of four experiments
[24] = 24 h, read-out: Inhibition (%) 110 μM (24 h), C. elegans L4 motility, 110 μM, 24 h, mean ± SD of four experiments
[25] = read-out: EC50 (μM) at 24 h, C. elegans motility, DR assay

## CCc1nn(C)c(C(=O)NCc2ccc(Oc3ccc(C)cc3)cc2)c1Cl [Tolfenpyrad]
C. elegans [1]; Caenorhabditis elegans, read-out: EC50 (μM) at 24 h, C. elegans motility, DR assay
  EC50: 2.4 ± 0.2 µM
[2]; Haemonchus contortus
  EC50: 1.5 ± 0.1 µM
[2]; [17]
  inhibition at 100 µM: 96 ± 2.9%
[3]; Teladorsagia circumcincta
  EC50: 0.2 ± 0.3 µM
[3]; [18]
  inhibition at 100 µM: 99.7 ± 0.5%
[4]
  inhibition at 100 µM: 9 ± 6.3%
[5]; pH 7.2, CC50 HepG2 spheroids / EC50 H. contortus, read-out: Selective Index (SI) CC50/EC50 Sph/H. c
  selectivity ratio: > 33.3
[5]; pH 7.2, CC50 HepG2 spheroids / EC50 T. circumcincta, read-out: Selective Index (SI) CC50/EC50 Sph/T. c
  selectivity ratio: 250
[5]; [19]
  CC50: > 50 µM
C. elegans [6]; read-out: EC50 found in the literature
  EC50: 3.6 µM
H. contortus L3-L4
  IC50: 20 to 3000 nM
In vitro
  CC50: < 1000 nM
In vitro; [20]
  selectivity ratio: < 0.7
In vitro; [21]
  selectivity ratio: < 5
[7]
  Plasma concentration in a poisoning case: 1.97 µg/mL and 5.08 µM
[8]
  Maximum tolerated dose (MTD): 1 mg/kg
[9]
  GHS classification: category 4: acute toxicity
C. elegans [10]; 0 h, read-out: Inhibition (%) 110 μM (0 h)
  inhibition at 110 µM: 80 ± 2%
C. elegans [10]; 24 h, read-out: Inhibition (%) 110 μM (24 h)
  inhibition at 110 µM: 98 ± 2%

## CCCCCCCCN=c1ccn(CCCCCCCCCCn2ccc(=NCCCCCCCC)cc2)cc1 [Octenidine, reference compound]
C. elegans [1]; Caenorhabditis elegans, 24 h, read-out: EC50 (μM) at 24 h, C. elegans motility, DR assay, 24 h
  EC50: 6.9 ± 0.5 µM
[2]; Haemonchus contortus
  EC50: 2.1 ± 0.1 µM
[2]; [17]
  inhibition at 100 µM: 99.5 ± 0.8%
[3]; Teladorsagia circumcincta
  EC50: 15.1 ± 4.8 µM
[3]; [18]
  inhibition at 100 µM: 99.5 ± 0.9%
[4]
  inhibition at 100 µM: 98.3 ± 0.3%
[11]
  inhibition at 100 µM: 94.8 ± 4.3%
[5]; [22]
  CC50 at 3 d: 54.1 ± 2.8 µM
[5]; HepG2 liver spheroids, pH 7.2, CC50 HepG2 spheroids / EC50 H. contortus, read-out: Selective Index (SI) CC50/EC50 Sph/H. c
  selectivity ratio at 3 d: 25.8
[5]; HepG2 liver spheroids, pH 7.2, CC50 HepG2 spheroids / EC50 T. circumcincta, read-out: Selective Index (SI) CC50/EC50 Sph/T. c
  selectivity ratio at 3 d: 3.6
[12]
  Concentration leading to a microbial reduction of more than 99% within 15 min: below 1.5 μM
[9]
  GHS classification: category 4: acute toxicity
C. elegans [10]; [23]
  inhibition at 110 µM: 84 ± 1%
C. elegans [10]; [24]
  inhibition at 110 µM: 96 ± 5%
[13]
  CC50 at 3 d: 14.2 ± 0.4 µM
[13]; [20]
  selectivity ratio at 3 d: 6.8
[13]; [21]
  selectivity ratio at 3 d: 0.9

## O=C(/C=C/c1ccccc1)c1ccccc1 [Trans-chalcone]
C. elegans [1]; [25]
  EC50: 24.9 ± 1.8 µM
[2]
  EC50: 3.1 ± 0.2 µM
[2]; susceptible strain, 100 μM, NE = Not Effective at 100 μM, control thiabendazole 0.1 µg/mL
  H. contortus EHI (%): 99.5 ± 0.7%
[3]
  EC50: 4.9 ± 0.2 µM
[3]; resistant strain, 100 μM, NE = Not Effective at 100 μM, control thiabendazole 0.1 µg/mL
  T. circumcincta EHI (%): 99.9 ± 0.2%
[4]
  H. contortus LMIT (%): 20.3 ± 7.5%
HepG2 liver spheroids; [19]
  CC50: > 90 µM
HepG2 liver spheroids; human, pH 7.2
  Selective Index (SI) CC50/EC50 Sph/H. c: >29.0
  Selective Index (SI) CC50/EC50 Sph/T. c: >18.4
C. elegans [14]; 0 h, 110 μM
  Inhibition (%) 110 μM (0 h): 16 ± 17%
C. elegans [14]; 24 h, 110 µM
  Inhibition (%) 110 μM (24 h): 95 ± 5%
[15]
  Selective Index (SI) CC50/EC50 Ent/H. c: >16.1
  Selective Index (SI) CC50/EC50 Ent/T. c: >10.2
C. elegans [10]; 0 h, read-out: Percentage of motility inhibition 0 h, Table S2, C. elegans SS assay, 110 μM, 0 h, averages of 4 data points
  inhibition at 110 µM: 17%
C. elegans [10]; 24 h, read-out: Percentage of motility inhibition 24 h, Table S2, C. elegans SS assay, 110 μM, 24 h, averages of 4 data points
  inhibition at 110 µM: 96%
[16]
  CC50: > 50 µM

## O=C(/C=C/c1ccccc1)c1ccccc1 [Chalcone]
C. elegans [1]; [25]
  EC50: 52.4 ± 1.4 µM
[2]; Haemonchus contortus
  EC50: 3.7 ± 0.1 µM
[2]; [17]
  inhibition at 100 µM: 99.4 ± 0.1%
[3]; Teladorsagia circumcincta
  EC50: 9.8 ± 0.3 µM
[3]; [18]
  inhibition at 100 µM: 100%
[4]
  H. contortus LMIT (%): 45.7 ± 4.5%
[11]
  inhibition at 100 µM: 4.7 ± 1.5%
[5]; [22]
  CC50 at 3 d: > 90 µM
[5]; pH 7.2, Selective Index (SI) CC50/EC50 Sph/H. c
  selectivity ratio: > 24.3
[5]; pH 7.2, Selective Index (SI) CC50/EC50 Sph/T. c
  selectivity ratio: > 9.2
C. elegans [14]; 24 h, 110 µM
  Percentage of motility inhibition 24 h: 86%
C. elegans [6]; nematocidal, read-out: EC50 against C. elegans
  EC50: 52 ± 9 µM
In vitro; Selective Index (SI) CC50/EC50 Ent/H. c
  selectivity ratio: > 13.5
In vitro; Selective Index (SI) CC50/EC50 Ent/T. c
  selectivity ratio: > 5.1
C. elegans [10]; [23]
  inhibition at 110 µM: 30 ± 30%
C. elegans [10]; [24]
  inhibition at 110 µM: 85 ± 15%
[13]
  CC50 at 3 d: > 50 µM
